Source: the supplement of paper PMC10307832

Tests used:
Assay in all cases: relative viability (nuclei count vs DMSO), 5 days (fraction); higher = more cells survive
[1] = compound: C1COCCN1C2=NC(=NC3=C2OC4=C3C=CC=N4)C5=CC(=CC=C5)NC(=O)C6=CN=C(C=C6)N + COc1cc2c(Oc3ccc(NC(=O)C4(C(=O)Nc5ccc(F)cc5)CC4)cc3F)ccnc2cc1OCCCN1CCOCC1 [Foretinib] (partner 0.25 µM)
How it was run: (§1)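 Relative viability divides the nuclei count in treated wells by that in vehicle wells. Lung cancer cell lines were seeded in 1536-well plates, dosed by pin tool the next day, and fixed and stained after 5 days in one step with final 0.05% Triton X-100, 1% formaldehyde and 1 ug/ml Hoechst. Dosing was a single drug or a fixed anchor-drug dose plus five library-drug doses (not always all listed) in √10 steps, and values are medians of duplicate plates imaged at 4×.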

Entinostat + Tozasertib = compound: Nc1ccccc1NC(=O)c1ccc(CNC(=O)OCc2cccnc2)cc1 [Entinostat] + Cc1cc(Nc2cc(N3CCN(C)CC3)nc(Sc3ccc(NC(=O)C4CC4)cc3)n2)n[nH]1 [Tozasertib] (partner 0.1 µM)
How it was run: as §1

SGI-1776 + Pemetrexed = compound: CN1CCC(CNc2ccc3ncc(-c4cccc(OC(F)(F)F)c4)n3n2)CC1 [SGI-1776] + Nc1nc2[nH]cc(CCc3ccc(C(=O)N[C@@H](CCC(=O)O)C(=O)O)cc3)c2c(=O)[nH]1 [Pemetrexed] (partner 0.2 µM)
How it was run: as §1

Entinostat + Decitabine = compound: Nc1ccccc1NC(=O)c1ccc(CNC(=O)OCc2cccnc2)cc1 [Entinostat] + Nc1ncn([C@H]2C[C@H](O)[C@@H](CO)O2)c(=O)n1 [Decitabine] (partner 2 µM)
How it was run: as §1

| Cell Line | relative viability ([1]; first compound 0.02 µM) | relative viability ([1]; first compound 0.06325 µM) | relative viability ([1]; first compound 0.2 µM) | relative viability ([1]; first compound 0.6325 µM) | relative viability ([1]; first compound 2 µM) | relative viability (Entinostat + Tozasertib; first compound 0.02 µM) | relative viability (Entinostat + Tozasertib; first compound 0.06325 µM) | relative viability (Entinostat + Tozasertib; first compound 0.2 µM) | relative viability (Entinostat + Tozasertib; first compound 0.6325 µM) | relative viability (Entinostat + Tozasertib; first compound 2 µM) | relative viability (SGI-1776 + Pemetrexed; first compound 0.08 µM) | relative viability (SGI-1776 + Pemetrexed; first compound 0.8 µM) | relative viability (SGI-1776 + Pemetrexed; first compound 2.53 µM) | relative viability (SGI-1776 + Pemetrexed; first compound 8 µM) | relative viability (Entinostat + Decitabine; first compound 0.02 µM) | relative viability (Entinostat + Decitabine; first compound 0.06325 µM) | relative viability (Entinostat + Decitabine; first compound 0.2 µM) | relative viability (Entinostat + Decitabine; first compound 0.6325 µM) | relative viability (Entinostat + Decitabine; first compound 2 µM) |
| --- | --- | --- | --- | --- | --- | --- | --- | --- | --- | --- | --- | --- | --- | --- | --- | --- | --- | --- | --- |
| NCI-H2009 | 1.28 | 1.24 | 1.19 | 1.11 | 0.932 | 0.713 | 0.753 | 0.647 | 0.452 | 0.336 | 0.912 | 1.05 | 1.15 | 0.954 | 0.433 | 0.385 | 0.4 | 0.409 | 0.323 |
| PC-14 | 0.965 | 1.17 | 1.04 | 0.977 | 0.755 | 0.56 | 0.629 | 0.325 | 0.104 | 0.0609 | 0.14 | 0.13 | 0.117 | 0.101 | 0.248 | 0.184 | 0.189 | 0.109 | 0.0779 |
| NCI-H1944 | 0.898 | 0.916 | 0.942 | 0.772 | 0.731 | 0.224 | 0.215 | 0.204 | 0.162 | 0.132 | 0.727 | 0.757 | 0.591 | 0.559 | 0.391 | 0.372 | 0.258 | 0.25 | 0.245 |
| NCI-H2085 | 0.998 | 0.998 | 0.775 | 0.938 | 0.604 | 0.788 | 0.618 | 0.612 | 0.431 | 0.365 | 0.936 | 1.06 | 0.971 | 0.788 | 0.552 | 0.545 | 0.51 | 0.483 | 0.405 |
